Patent US20260001928A1 (CORTERIA PHARMACEUTICALS, priority 2022, published 2026)
pEC50: −log10 of the molar value. *1 amine or outer side, *2 acyl side, *3 side chain or, on linkers, in order; H or OH if unused. Where a SMILES comes first, the peptide text is derived from it. Side-chain parts run from the residue outwards. [ ]: non-standard residue; d: D form. The star is where a group is joined. C18 diacid = O=C(O)CCCCCCCCCCCCCCCCC(=O)*; C16 diacid = O=C(O)CCCCCCCCCCCCCCC(=O)*; γGlu = O=C(O)[C@H](CCC(=O)[*:2])N[*:1]; αMeL = CC(C)C[C@](C)(N)C(=O)O; AEEA = NCCOCCOCC(=O)O; Aib = CC(C)(N)C(=O)O

Columns and labels:
CFR1R receptor = target: T1, CFR1R receptor (Homo sapiens, UniProt P34998); experiment: Activity at anti-target CFR1R receptor, cAMP assay in CRF1R-overexpression CHO-K1 cells; assay type: cell-based; details: 100% = Sauvagine at 100 nM; for pEC50: cAMP
T1 construct: host or cells: CHO-K1 (clone 2)
T1 sequence (P34998 24-415): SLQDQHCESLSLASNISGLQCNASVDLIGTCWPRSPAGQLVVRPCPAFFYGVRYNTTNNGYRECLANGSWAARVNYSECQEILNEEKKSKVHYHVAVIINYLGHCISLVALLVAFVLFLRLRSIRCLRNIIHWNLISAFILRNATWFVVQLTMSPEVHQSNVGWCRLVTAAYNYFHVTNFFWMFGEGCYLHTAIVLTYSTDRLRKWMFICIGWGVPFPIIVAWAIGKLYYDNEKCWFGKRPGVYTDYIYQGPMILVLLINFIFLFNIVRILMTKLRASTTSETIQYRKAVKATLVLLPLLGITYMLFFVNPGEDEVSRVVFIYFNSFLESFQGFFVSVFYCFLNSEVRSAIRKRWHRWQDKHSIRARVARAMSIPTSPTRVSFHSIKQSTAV
Method in brief: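 Grow clone 2 to near confluence at 37° C. under 5% CO2 in F12 (Hams) with 10% FBS and G418, harvest, and freeze in 10% DMSO. Thaw and plate at 4000 cells/well. Then proceed per the TeloHAEC method, normalising to Sauvagine 100 nM as maximum.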

human CRF2a receptor = target: T2, human CRF2a receptor (Homo sapiens, UniProt Q13324); experiment: Activity at human CRF2a receptor, cAMP functional assay in TeloHEAC cells; assay type: cell-based; details: TeloHEAC cells stably expressing human CRF2a receptor, relative to urocortin 2 (100 nM = 100%)
T2 construct: expressed in transfected cells; host or cells: TeloHEAC cells
T2 sequence (Q13324 1-411): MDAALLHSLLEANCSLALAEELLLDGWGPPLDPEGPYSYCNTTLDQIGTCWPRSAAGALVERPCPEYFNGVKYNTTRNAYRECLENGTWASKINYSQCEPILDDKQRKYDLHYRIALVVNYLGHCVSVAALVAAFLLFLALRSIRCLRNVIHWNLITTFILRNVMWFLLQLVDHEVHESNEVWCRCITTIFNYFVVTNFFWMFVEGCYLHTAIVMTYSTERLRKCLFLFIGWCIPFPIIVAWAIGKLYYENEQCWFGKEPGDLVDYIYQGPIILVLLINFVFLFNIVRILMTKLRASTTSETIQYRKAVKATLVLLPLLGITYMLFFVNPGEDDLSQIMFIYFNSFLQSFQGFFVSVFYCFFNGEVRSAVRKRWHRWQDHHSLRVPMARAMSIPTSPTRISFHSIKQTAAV
Method in brief: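 TeloHEAC cells stably expressing human CRF2a (10000 cells/well) were treated with 16-point 1:2 compound dilutions in HBSS/20 mM HEPES with IBMX for 30 min at 37° C. cAMP was read by HTRF (665/620 nm ratio). EC50 was the concentration giving 50% activation, with 100 nM urocortin 2 set as 100%.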

Compound	Emax (% I) (CFR1R receptor)	pEC50 (CFR1R receptor)	pEC50 (human CRF2a receptor)
CC[C@H](C)[C@H](NC(C)=O)C(=O)N[C@H](C(=O)N[C@@H](CC(C)C)C(=O)N[C@@H](CO)C(=O)N[C@@H](CC(C)C)C(=O)N[C@@H](CC(=O)O)C(=O)N[C@@H](C(=O)N1CCC[C@H]1C(=O)N[C@H](C(=O)N[C@@H](CCCCN)C(=O)N[C@@](C)(CC(C)C)C(=O)N[C@@H](CCCCNC(=O)CC[C@H](NC(=O)CCCCCCCCCCCCCCC(=O)O)C(=O)O)C(=O)N[C@@H](CCCCN)C(=O)N[C@H](C(=O)N[C@@H](CC(C)C)C(=O)N[C@@H](CC(C)C)C(=O)N[C@@H](CCC(=O)O)C(=O)N[C@@H](CCC(N)=O)C(=O)N[C@@H](CCC(=O)O)C(=O)N[C@@H](CCCCN)C(=O)N[C@@H](CCC(N)=O)C(=O)N[C@@H](CCCCN)C(=O)N[C@@H](CCCCN)C(=O)N[C@@H](CCC(N)=O)C(=O)N[C@@H](CCCNC(=N)N)C(=O)N[C@@H](CCC(=O)O)C(=O)N[C@@H](CCC(N)=O)C(=O)N[C@@H](C)C(=O)N[C@@H](CCC(=O)O)C(=O)N[C@H](C(=O)N[C@@H](CC(N)=O)C(=O)NC(C)(C)C(=O)N[C@@H](CCC(N)=O)C(=O)N[C@H](C(=O)N[C@@H](CC(C)C)C(=O)N[C@@H](C)C(=O)N[C@@H](CCC(N)=O)C(=O)N[C@H](C(N)=O)C(C)C)[C@@H](C)CC)[C@@H](C)O)[C@@H](C)CC)[C@@H](C)CC)C(C)C)C(C)C [compound 44] (Ac-IVLSLD[dV]PIK[αMeL]K([γGlu-C16 diacid])KILLEQEKQKKQREQAETN[Aib]QILAQV-NH2)	5	< 6.60	9.60
CC[C@H](C)[C@H](NC(=O)[C@H](CCC(N)=O)NC(=O)C(C)(C)NC(=O)[C@H](CC(N)=O)NC(=O)[C@@H](NC(=O)[C@H](CCC(=O)O)NC(=O)[C@H](C)NC(=O)[C@H](CCC(N)=O)NC(=O)[C@H](CCC(=O)O)NC(=O)[C@H](CCCNC(=N)N)NC(=O)[C@H](CCC(N)=O)NC(=O)[C@H](CCCCN)NC(=O)[C@H](CCCCN)NC(=O)[C@H](CCC(N)=O)NC(=O)[C@H](CCCCN)NC(=O)[C@H](CCC(=O)O)NC(=O)[C@H](CCC(N)=O)NC(=O)[C@H](CCC(=O)O)NC(=O)[C@H](CC(C)C)NC(=O)[C@H](CC(C)C)NC(=O)[C@@H](NC(=O)[C@H](CCCCN)NC(=O)[C@H](CCCCNC(=O)COCCOCCNC(=O)COCCOCCNC(=O)CC[C@H](NC(=O)CCCCCCCCCCCCCCCCC(=O)O)C(=O)O)NC(=O)[C@H](CC(C)C)NC(=O)[C@H](CCCCN)NC(=O)[C@@H](NC(=O)[C@@H]1CCCN1C(=O)[C@H](NC(=O)[C@H](CC(=O)O)NC(=O)[C@H](CC(C)C)NC(=O)[C@H](CO)NC(=O)[C@H](CC(C)C)NC(=O)[C@@H](NC(C)=O)C(C)C)C(C)C)[C@@H](C)CC)[C@@H](C)CC)[C@@H](C)O)C(=O)N[C@@H](CC(C)C)C(=O)N[C@@H](C)C(=O)N[C@@H](CCC(N)=O)C(=O)N[C@H](C(N)=O)C(C)C [compound 99] (Ac-VLSLD[dV]PIKLK([AEEA-AEEA-γGlu-C18 diacid])KILLEQEKQKKQREQAETN[Aib]QILAQV-NH2)	0	< 6.60	8.22
